Assay in all cases: pIC50, kinobeads binding competition
Test [1] deals with T1, UniProt O14757.
T1 sequence (whole entry): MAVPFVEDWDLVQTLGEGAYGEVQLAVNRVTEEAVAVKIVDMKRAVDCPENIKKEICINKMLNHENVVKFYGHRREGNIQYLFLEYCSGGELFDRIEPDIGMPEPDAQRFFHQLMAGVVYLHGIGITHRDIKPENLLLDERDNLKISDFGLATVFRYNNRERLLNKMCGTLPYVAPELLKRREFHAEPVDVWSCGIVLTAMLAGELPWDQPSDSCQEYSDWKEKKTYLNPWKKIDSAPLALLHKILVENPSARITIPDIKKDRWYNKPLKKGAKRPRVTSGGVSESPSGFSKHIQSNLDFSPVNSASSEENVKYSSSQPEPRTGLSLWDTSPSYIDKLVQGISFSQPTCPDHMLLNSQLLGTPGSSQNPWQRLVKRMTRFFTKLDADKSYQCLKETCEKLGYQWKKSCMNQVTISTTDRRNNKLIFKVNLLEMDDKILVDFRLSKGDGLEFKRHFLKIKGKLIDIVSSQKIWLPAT
A digest of the protocol: (§1)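 Nine compound concentrations were tested, starting at 30 μM in 1:4 steps on live Jurkat cells (60 min, 37 °C, then lysis) or in 1:5 steps on Jurkat lysate or a 1:1:1:1 HEK293/K-562/HepG2/placenta lysate mix (60 min, 4 °C). Kinobeads-bound proteins were digested and quantified with TMT10 LC-MS/MS. pIC50 values are from logistic dose-response fits in the R drc package of fold changes relative to vehicle, from biological duplicates.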

For test [2], the target named is T2, MAP4K3 (UniProt Q8IVH8).
T2 sequence (whole entry): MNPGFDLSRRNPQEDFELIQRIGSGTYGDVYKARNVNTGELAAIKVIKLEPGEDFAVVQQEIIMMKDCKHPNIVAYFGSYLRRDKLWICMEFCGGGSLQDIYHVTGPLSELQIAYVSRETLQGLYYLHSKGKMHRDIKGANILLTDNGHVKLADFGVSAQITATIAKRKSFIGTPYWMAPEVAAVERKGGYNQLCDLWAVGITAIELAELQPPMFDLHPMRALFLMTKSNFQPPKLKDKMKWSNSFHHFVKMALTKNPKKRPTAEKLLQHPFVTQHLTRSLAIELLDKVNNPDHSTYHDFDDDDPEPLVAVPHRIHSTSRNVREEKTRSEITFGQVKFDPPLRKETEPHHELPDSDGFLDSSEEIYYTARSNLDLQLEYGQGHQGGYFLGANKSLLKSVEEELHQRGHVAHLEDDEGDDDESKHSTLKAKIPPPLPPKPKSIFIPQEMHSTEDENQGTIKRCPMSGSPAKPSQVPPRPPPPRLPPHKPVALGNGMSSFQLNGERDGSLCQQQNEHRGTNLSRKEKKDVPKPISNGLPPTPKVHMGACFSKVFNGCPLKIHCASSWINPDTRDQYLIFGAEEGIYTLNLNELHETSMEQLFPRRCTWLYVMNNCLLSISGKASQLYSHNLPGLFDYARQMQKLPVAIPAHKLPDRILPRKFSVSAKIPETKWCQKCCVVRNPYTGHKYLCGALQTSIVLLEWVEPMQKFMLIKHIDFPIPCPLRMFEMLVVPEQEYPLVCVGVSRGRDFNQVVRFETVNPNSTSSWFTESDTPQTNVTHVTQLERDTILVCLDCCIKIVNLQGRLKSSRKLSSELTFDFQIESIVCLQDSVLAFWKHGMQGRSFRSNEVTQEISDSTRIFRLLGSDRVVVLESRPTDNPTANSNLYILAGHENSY
A digest of the protocol:
as §1

For test [3], the target named is T3, BCR (UniProt P11274).
T3 sequence (whole entry): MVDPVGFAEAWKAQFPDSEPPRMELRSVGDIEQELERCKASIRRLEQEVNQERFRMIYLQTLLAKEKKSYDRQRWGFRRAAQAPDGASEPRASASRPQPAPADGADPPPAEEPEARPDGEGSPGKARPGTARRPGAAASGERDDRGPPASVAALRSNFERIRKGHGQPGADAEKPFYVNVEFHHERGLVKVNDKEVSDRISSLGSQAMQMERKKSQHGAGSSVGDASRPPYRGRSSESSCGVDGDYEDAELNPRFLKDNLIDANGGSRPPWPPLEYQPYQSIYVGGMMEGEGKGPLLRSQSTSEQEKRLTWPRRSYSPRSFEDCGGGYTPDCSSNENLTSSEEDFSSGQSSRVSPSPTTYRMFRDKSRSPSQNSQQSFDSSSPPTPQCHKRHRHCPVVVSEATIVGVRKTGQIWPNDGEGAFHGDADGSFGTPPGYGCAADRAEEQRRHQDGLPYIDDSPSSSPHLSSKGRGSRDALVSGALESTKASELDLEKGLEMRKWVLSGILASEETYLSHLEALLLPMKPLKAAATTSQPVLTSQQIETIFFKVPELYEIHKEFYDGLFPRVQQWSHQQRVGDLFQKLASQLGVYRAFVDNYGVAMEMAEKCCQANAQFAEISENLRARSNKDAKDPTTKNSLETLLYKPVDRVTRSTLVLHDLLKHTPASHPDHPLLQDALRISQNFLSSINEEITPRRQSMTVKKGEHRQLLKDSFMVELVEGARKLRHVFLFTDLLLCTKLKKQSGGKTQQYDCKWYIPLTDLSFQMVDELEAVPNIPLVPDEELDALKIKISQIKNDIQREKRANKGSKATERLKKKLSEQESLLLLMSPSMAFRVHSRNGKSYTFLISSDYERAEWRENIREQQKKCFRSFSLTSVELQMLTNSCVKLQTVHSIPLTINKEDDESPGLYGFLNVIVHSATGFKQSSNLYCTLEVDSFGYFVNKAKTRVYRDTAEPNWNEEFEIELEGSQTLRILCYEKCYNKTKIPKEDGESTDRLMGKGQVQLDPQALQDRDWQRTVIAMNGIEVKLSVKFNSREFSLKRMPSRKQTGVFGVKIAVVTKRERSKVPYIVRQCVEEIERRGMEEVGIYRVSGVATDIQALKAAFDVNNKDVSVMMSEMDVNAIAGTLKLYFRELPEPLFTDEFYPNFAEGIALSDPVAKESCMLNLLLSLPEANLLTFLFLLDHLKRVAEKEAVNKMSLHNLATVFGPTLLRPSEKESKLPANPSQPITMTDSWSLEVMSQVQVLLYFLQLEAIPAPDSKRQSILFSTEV
Particulars: cell material: Lysate mix. In short, it runs like this: as §1

The pIC50 is the IC50 on a negative log10 scale, so that one unit is a factor of ten. The low end stands for a high IC50, the high end for a low IC50.

For the compound `Cc1cc(Nc2cc(C(=O)NCCNC(=O)OC3CC/C=C/CCC3)nc(N3CCN(Cc4ccc(S(=O)(=O)F)cc4)CC3)n2)n[nH]1` (stereo unspecified), the pIC50 in test [1] (cell material: Lysate mix), in test [2] (cell material: Lysate mix) and in test [3] was under 4.52 in each case.
As for `C#CCNC(=O)c1cc(Nc2cc(C3CC3)[nH]n2)nc(N2CCN(Cc3ccc(S(=O)(=O)F)cc3)CC2)n1`, the pIC50 is 5.16 in test [1] (cell material: Jurkat cells); under 4.52 in test [1] (cell material: Jurkat lysate); under 4.52 in test [1] (cell material: Lysate mix); 6.02 in test [2] (cell material: Jurkat cells); 4.77 in test [2] (cell material: Jurkat lysate); 5.43 in test [2] (cell material: Lysate mix). Further, in test [3], the pIC50 is under 4.52.
For `CCNC(=O)c1cc(Nc2cc(C3CC3)[nH]n2)nc(N2CCN(Cc3ccc(S(=O)(=O)F)cc3)CC2)n1`, the pIC50 in test [1] (cell material: Lysate mix) is under 4.52; in test [2] (cell material: Lysate mix), 5.11; in test [3] it was under 4.52.
In the case of `C#CCNC(=O)c1cc(Nc2cc(C)[nH]n2)nc(N2CCN(Cc3ccc(S(=O)(=O)F)cc3)CC2)n1`, the pIC50 in test [1] (cell material: Lysate mix) was under 4.52; in test [2] (cell material: Lysate mix), 4.65; in test [3], under 4.52.
For the compound `O=C(NCCNC(=O)c1cc(Nc2cc(C3CC3)[nH]n2)nc(N2CCN(Cc3ccc(S(=O)(=O)F)cc3)CC2)n1)OC1CC/C=C/CCC1` (stereo unspecified), the pIC50 in test [1] (cell material: Jurkat cells) was under 4.52; in test [1] (cell material: Jurkat lysate), under 4.52; in test [1] (cell material: Lysate mix) it was under 4.52; in test [2] (cell material: Jurkat cells), 5.15; in test [2] (cell material: Jurkat lysate), under 4.52; in test [2] (cell material: Lysate mix), under 4.52. The compound also yielded a pIC50 in test [3] of under 4.52.
As for `CCNC(=O)c1cc(Nc2cc(C)[nH]n2)nc(N2CCN(Cc3ccc(S(=O)(=O)F)cc3)CC2)n1`, the pIC50 in test [1] (cell material: Lysate mix), in test [2] (cell material: Lysate mix) and in test [3] was under 4.52 throughout.

Values taken from the supplement of paper PMC12076712.
